The target in assay [1] is T1, PBP1b from Escherichia coli (Escherichia coli, UniProt P02919).
T1 construct: made in house
Put plainly: Radioligand competition binding assay with 14C-labeled boronic acid probe (Example 96). The conditions noted are these: 14C-labeled probe 96 at 20 μM, PBP 0.1 μM; read-out: E. coli K12 PBP1b EC50. The method, boiled down:
(§1)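 Purified PBP (0.1 μM) in 20 mM Tris pH 7.5, 500 mM NaCl, 0.1% Triton X-100 preincubated 60 min with inhibitor, then 60 min with 20 μM 14C-boronic acid probe. Bound probe recovered by spin desalting and counted by scintillation; EC50 is the concentration halving probe binding.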
(In a radioligand displacement assay an active substance lowers the binding of a labelled ligand.)

Assay [2] concerns the target T2, PBP1a from Escherichia coli (Escherichia coli, UniProt P02918).
T2 construct: made in house
The assay is described as above. Conditions: 14C-labeled probe 96 at 20 μM, PBP 0.1 μM; read-out: E. coli K12 PBP1a EC50. The method, boiled down:
as §1

A further assay deals with T3, E. coli PBP3 (Escherichia coli, UniProt P0AD68).
T3 construct: 100 μg's of total membrane protein extracts containing PBPs; endogenous in cells; host or cells: Escherichia coli K12 membrane fraction
Put plainly: Bocillin FL competition binding assay (SDS-PAGE gel, membrane PBPs). The conditions noted are these: 15 min. pre-incubation, membrane protein extracts, SDS-PAGE fluorescence scan. As to the method:
(§2) To determine the ability of test compounds to bind Penicillin Binding Proteins (PBPs), a competition binding assay using Bocillin FL (fluorescent derivative of penicillin V) was adapted from the classical method used to assess PBP potency of beta-lactams.
(§3) Penicillin binding proteins were isolated from Escherichia coli K12 by growth of Escherichia coli K12 from a single colony in 4 L of Luria-Bertani (LB) broth at 35° C. and 250 rpm to an OD600 nm of 0.5. The cells were harvested by centrifugation at 7,000×g for 10 min. at 4° C. Cells were resuspended and washed in 50 mM potassium phosphate pH 7.5. The cells were re-suspended in sonication buffer [50 mM Tris-HCl pH 7.5, 1 mM MgCl2, 1 mM beta-mercaptoethanol, and 5 μg/mL DNAse I] and sonicated by 4 passes of 30 seconds at 45 W on ice. The sample was clarified by centrifugation at 3,000×g to remove cell debris and unbroken cells and supernatant containing the membrane proteins was retained. The membrane proteins including the PBPs were further purified from soluble constituents by an ultracentrifugation step at 100,000×g for 30 min. at 4° C. The membrane proteins are washed twice with 10 mM sodium phosphate pH 7, resuspended in a volume of 5 mL, quantitated by BCA assay, adjusted to […] and frozen at −80° C. until use.
(§4) The adapted Bocillin FL competition binding assay described herein incorporates a 15 min. pre-incubation of test compound with isolated PBPs to attempt to balance the difference in mechanism of inhibition between beta-lactams (largely irreversible covalent bond to active site Serine) and the boron-containing PBP inhibitor test compounds (reversible covalent bond to active site Serine). Briefly, 50 μL reactions consisted of 100 μg's of total membrane protein extracts containing PBPs incubated with a dilution series of test compound ranging from 0.005 μg/mL to 2,480 μg/mL in 10 mM sodium phosphate pH7 containing 350 mM NaCl. Thirty minute reactions at 35° C. were initiated by addition of […] Bocillin FL, quenched by addition of SDS-PAGE loading buffer containing sodium dodecyl sulfate (SDS) and heated for 15 minutes at 95° C. to denature proteins in preparation for SDS-polyacrylamide gel electrophoresis. The Bocillin FL labeled PBPs are then separated by SDS-PAGE in Novex NuPage 10% Bis-Tris pre-cast gels (Invitrogen). The SDS-PAGE gel, post-electrophoresis, is then washed in water to remove excess SDS for 10 minutes at room temperature and placed on the scanning bed of a GE Healthcare/Amersham Biosciences Storm 860 fluorescence scanner. […] Effective PBP inhibitors are detected by a reduction in Bocillin FL labeling of the particular PBP over the dose range of test compound in a dose-responsive manner. […]

Another assay has as its target T4, E. coli K12 PBP1a (Escherichia coli, UniProt P02918).
T4 construct: 100 μg's of total membrane protein extracts containing PBPs; endogenous in cells; host or cells: Escherichia coli K12 membrane fraction
The assay is described as above. Conditions: 15 min. pre-incubation, membrane protein extracts, SDS-PAGE fluorescence scan. As to the method: as §2, §3, §4

The structures appear in SMILES notation.

The source of these data is patent publication US11332485B2, “Penicillin-binding protein inhibitors” (priority 2017, dated 2022).

T3 sequence (P0AD68 1-577): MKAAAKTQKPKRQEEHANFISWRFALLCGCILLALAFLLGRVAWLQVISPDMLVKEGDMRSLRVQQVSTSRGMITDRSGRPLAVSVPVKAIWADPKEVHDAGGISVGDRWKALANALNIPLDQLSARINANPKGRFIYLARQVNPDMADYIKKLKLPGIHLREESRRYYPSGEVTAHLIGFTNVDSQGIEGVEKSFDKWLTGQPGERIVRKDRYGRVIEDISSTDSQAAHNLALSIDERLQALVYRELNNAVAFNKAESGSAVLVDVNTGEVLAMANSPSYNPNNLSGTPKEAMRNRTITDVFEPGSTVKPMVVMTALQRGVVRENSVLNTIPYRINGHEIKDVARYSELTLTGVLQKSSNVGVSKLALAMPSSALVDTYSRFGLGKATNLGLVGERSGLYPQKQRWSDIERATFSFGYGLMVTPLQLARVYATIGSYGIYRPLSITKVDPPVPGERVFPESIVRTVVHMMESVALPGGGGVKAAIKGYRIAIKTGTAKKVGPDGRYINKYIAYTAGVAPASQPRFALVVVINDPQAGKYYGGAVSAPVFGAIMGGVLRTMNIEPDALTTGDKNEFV
T4 sequence (P02918 whole entry): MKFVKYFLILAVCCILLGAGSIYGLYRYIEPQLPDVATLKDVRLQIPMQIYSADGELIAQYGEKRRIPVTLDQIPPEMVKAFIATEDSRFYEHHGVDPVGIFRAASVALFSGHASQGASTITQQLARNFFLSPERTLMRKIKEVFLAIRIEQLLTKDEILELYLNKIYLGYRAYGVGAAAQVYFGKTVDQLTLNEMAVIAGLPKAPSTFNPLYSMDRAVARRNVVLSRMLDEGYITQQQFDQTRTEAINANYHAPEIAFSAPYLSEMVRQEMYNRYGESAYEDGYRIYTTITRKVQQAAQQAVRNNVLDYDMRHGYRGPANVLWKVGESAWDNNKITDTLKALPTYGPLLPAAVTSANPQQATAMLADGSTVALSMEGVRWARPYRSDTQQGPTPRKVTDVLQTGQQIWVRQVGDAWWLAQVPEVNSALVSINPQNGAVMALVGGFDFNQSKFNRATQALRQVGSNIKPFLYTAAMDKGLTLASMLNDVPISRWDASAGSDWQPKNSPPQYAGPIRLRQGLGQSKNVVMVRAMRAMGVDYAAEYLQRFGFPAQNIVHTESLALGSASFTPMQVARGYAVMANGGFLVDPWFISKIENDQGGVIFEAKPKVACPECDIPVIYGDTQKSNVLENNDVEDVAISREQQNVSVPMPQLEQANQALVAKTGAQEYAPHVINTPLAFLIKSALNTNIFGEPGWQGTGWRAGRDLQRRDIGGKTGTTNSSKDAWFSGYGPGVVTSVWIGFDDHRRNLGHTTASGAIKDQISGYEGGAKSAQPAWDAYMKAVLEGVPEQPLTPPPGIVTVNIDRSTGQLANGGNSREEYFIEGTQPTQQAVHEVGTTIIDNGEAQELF
T2 sequence (P02918 whole entry): as above
T1 sequence (P02919 whole entry): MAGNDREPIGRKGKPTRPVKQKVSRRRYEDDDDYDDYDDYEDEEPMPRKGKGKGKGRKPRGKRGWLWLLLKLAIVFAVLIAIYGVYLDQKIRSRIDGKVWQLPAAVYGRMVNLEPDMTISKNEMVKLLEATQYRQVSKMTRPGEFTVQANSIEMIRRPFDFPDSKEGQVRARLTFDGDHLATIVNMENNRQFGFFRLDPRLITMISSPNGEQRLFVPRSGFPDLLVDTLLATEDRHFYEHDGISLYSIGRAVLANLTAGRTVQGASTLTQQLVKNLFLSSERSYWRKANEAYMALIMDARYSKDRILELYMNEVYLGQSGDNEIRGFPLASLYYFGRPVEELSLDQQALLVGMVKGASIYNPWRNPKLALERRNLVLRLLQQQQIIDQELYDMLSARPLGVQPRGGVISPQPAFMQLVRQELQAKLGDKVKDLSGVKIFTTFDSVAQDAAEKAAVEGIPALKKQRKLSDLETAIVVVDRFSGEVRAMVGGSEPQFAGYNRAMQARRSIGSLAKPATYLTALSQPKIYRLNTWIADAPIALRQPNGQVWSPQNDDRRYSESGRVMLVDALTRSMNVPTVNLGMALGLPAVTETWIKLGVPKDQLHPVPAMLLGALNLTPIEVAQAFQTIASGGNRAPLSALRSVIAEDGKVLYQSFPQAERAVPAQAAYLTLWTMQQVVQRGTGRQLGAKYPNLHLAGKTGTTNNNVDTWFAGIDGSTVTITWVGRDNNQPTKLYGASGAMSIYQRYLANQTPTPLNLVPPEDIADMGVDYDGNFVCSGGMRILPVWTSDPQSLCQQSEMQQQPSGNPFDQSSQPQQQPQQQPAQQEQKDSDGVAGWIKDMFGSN

As a reminder, the EC50 is the concentration needed to bring the measured effect to its halfway point. With `CCN1CCN(C(=O)NC(C(=O)N[C@H]2Cc3cccc(C(=O)O)c3OB2O)c2csc(N)n2)C(=O)C1=O` (stereo partly drawn) [Example 12, (3R)-3-(2-(2-aminothiazol-4-yl)-2-(4-ethyl-2,3-dioxopiperazine-1-carboxamido)acetamido)-2-hydroxy-3,4-dihydro-2H-benzo[e][1,2]oxaborinine-8-carboxylic acid], the EC50 in assay [1] and in assay [2] was less than 10 µM in each case. The “E. coli PBP3 Potency” value on E. coli PBP3 is “A (A represents a potency of >1000 μg/mL)”. Further, the “E. coliK12 PBP1a Potency” value on E. coli K12 PBP1a is “B (B represents a potency between 64 and 1000 μg/mL inclusive)”.
